Experimental data as given in article PMC8583042, “New Hybrid Compounds Combining Fragments of Usnic Acid and Thioether Are Inhibitors of Human Enzymes TDP1, TDP2 and PARP1” (International Journal of Molecular Sciences, 2021).

Key:
TDP1 [1] = target: T1, TDP1 (Homo sapiens, UniProt Q9NUW8); assay: Real-time fluorescence assay of TDP1 activity; format: biochemical; details: real-time fluorescent assay, 1.5 nM TDP1, 50 nM oligonucleotide; read-out: IC50 (TDP1)
T1 construct: made in house; host or cells: E. coli
Excerpt: We tested UA and all 14 newly synthesized UA derivatives for their TDP1 inhibitory properties by measuring their IC50 values using a real-time fluorescent assay. […] Compounds 10a,b are sulfoxide analogs of 7g,h.
Human recombinant tyrosyl-DNA phosphodiesterase 1 (TDP1) and human recombinant poly(ADP-ribose)-polymerase1 (PARP1) were expressed in the E. coli system and purified as described.
(§1) The biosensor (5′-[FAM] AAC GTC AGGGTC TTC C [BHQ]-3′) was synthesized in the Laboratory of Nucleic Acid Chemistry at the Institute of Chemical Biology and Fundamental Medicine (Novosibirsk, Russia) and was used for TDP1 enzyme activity real-time fluorescence detection. The reaction mixture (200 μL) contained a TDP1 reaction buffer (50 mM Tris-HCl, pH 8.0, 50 mM NaCl, and 7 mM β-mercaptoethanol), 50 nM oligonucleotide, varied concentrations of the tested compounds, and purified TDP1 in a final concentration 1.5 nM. The reaction mixtures were incubated at a constant temperature of 26 °C in a POLARstar OPTIMA fluorimeter (BMG LABTECH, GmbH, Ortenberg, Germany). Fluorescence intensity was measured (Ex485/Em520 nm) every 1 min for 10 min. The average values of the half maximal inhibitory concentration (IC50) were determined using an eleven-point concentration response curve and calculated using MARS Data Analysis 2.0 (BMG LABTECH). The 50% inhibitory concentration (IC50) was defined as the concentration of the compound that inhibited 50% of the enzyme activity when compared to the untreated controls. At least three independent experiments were carried out to obtain the IC50 values. To determine the kinetic parameters of the TDP1 enzymatic reaction, the apparent maximum rate of enzymatic reaction (Vmax), Michaelis constant (KM), possible inhibition mechanism, and steady-state kinetic experiments were carried out at 5 fixed concentrations of the substrate, with variation in the inhibitor concentrations. The standard reaction mixtures (200 μL) contained reaction buffer components; 50 nM, 100 nM, 200 nM, 500 nM, or 1000 nM substrate; an inhibitor; and 1.5 nM recombinant human TDP1. The initial kinetic curves were obtained in three independent experiments and statistically processed in OriginPro 8.6.0 (OriginLab, Northampton, MA, USA).

[2] = EZ4U colorimetric cytotoxicity test, HeLa; format: cell-based, human; details: human, HeLa cells; intrinsic cytotoxicity, compound alone, 3 days
Excerpt: (§2) The low intrinsic cytotoxicity of the additional drug component in the clinically used anticancer cocktails with traditional drugs is very important for treatment. This approach in chemotherapy can reduce the potential resulting toxic load on the body in the case of a combined action of these inhibitors on the activity of several targets. […] The effects of the tested compounds on cell survival are shown on Figure 4 and the CC50 values for three cell lines are shown in Table 1. The intrinsic cytotoxicity of a number of the studied compounds is quite high, namely, they have close IC50 values against the TDP1 and CC50 values on one or several studied cell lines. Most of the compounds generally were more toxic for the HEK293FT and HeLa cell lines than for the HEK293A cell line (Table 1 and Figure 4). The cytotoxicity of the three leader compounds, 7g, 10a, and 7h, was quite high. […] Compound 10b was one of the least toxic among the ten tested compounds.
(§3) Cytotoxicity of the compounds was examined against human cell lines HEK293A (human embryonic kidney)—WT, TDP1 deficient (Tdp1-/-), PARP1 deficient (PARP1-/-), and HeLa (cervical cancer) using an EZ4U colorimetric test (Biomedica, Vienna, Austria). The HEK293A cell line was obtained from Thermo Fisher Scientific (Waltham, MA, USA), and the HeLa cell line was obtained from the Russian Cell Culture Collection (RCCC) Institute of Cytology RAS, St. Petersburg, Russia. The cells were grown in DMEM/F12 medium (Gibco, Thermo Fisher Scientific, Waltham, MA, USA), with 1x GlutaMAX (Gibco, Thermo Fisher Scientific, Waltham, MA, USA), 50 IU/mL penicillin, 50 μg/mL streptomycin (MP Biomedicals), and in the presence of 10% fetal bovine serum (Biolot, Saint-Petersburg, Russia) in a 5% CO2 atmosphere. Cells were grown in the presence of 1% DMSO in the control wells. After the formation of a 30–50% monolayer, the tested compounds were added to the medium, and the cell culture was monitored for 3 days. The values were normalized to their own control in each case. At least three independent experiments were carried out. The 50% cytotoxic concentration (CC50) was defined as the compound concentration that reduced the cell viability by 50% when compared to the untreated controls. The compound concentration that caused 50% cell growth inhibition was determined using OriginPro 8.6.0 software (OriginLab, Northampton, MA, USA). The measurements were carried out in three independent experiments.

[3] = EZ4U colorimetric cytotoxicity test, HEK293A; format: cell-based; details: human, HEK293A cells; intrinsic cytotoxicity, 3 days; read-out: HEK293A CC50
Excerpt: as §2, §3

[4] = Colorimetric cytotoxicity test, HEK293FT; format: cell-based; details: human, HEK293FT cells, intrinsic cytotoxicity
Excerpt: as §2, §3

TDP1 [5] = target: T1, TDP1; assay: Steady-state kinetics of the TDP1 reaction (Vmax, KM, type of inhibition); format: biochemical; design: Vmax: unit not given here; details: for Type of inhibition of TDP1 enzyme reaction: steady-state conditions, fall in both Vmax and KM with increasing inhibitor
Excerpt: The reversible enzyme inhibitors were classified as competitive, uncompetitive, non-competitive, or mixed, depending on the binding of the enzyme, to the enzyme–substrate complex (ES) or to the enzyme–substrate–inhibitor triple complex (ESI). The enzyme could bind the inhibitor at the different steps of catalysis (before or after the substrate) and at the substrate-binding site or another site. The effect of the inhibitor on enzymatic activity can be analyzed using graphical representations of the Michaelis–Menten equation. […] TDP1 has a catalytic pocket with a narrow positively charged cleft where it binds DNA and with a relatively large cleft that contains a mixed charge distribution for the TOP1 fragment binding. It is known that TDP1 hydrolyzes the DNA–TOP1 adducts via two coordinated nucleophilic attacks of two His residues (His263 and His493) with the covalent intermediate complex formation. The enzyme reaction catalyzed by TDP1 could be inhibited in two steps: the first one is the inhibition of the TDP1 binding to the DNA substrate (the nucleophilic attack of His263). The second step is releasing TDP1 from the transition complex (nucleophilic attack by a water molecule activated by His493). Inhibition of the second step prevents the release of the DNA 3′-phosphate product from the DNA–TDP1 complex. Spinocerebellar ataxia with axonal neuropathy (SCAN1) is a neurological disease that is caused by a TDP1 His493Arg mutation. This mutation prevents the second step of hydrolysis of the intermediate complex and the enzyme remains covalently bound to DNA [47]. The uncompetitive inhibitors also prevent the second step of the reaction, stabilizing the enzyme–DNA covalent complex, which can lead to the accumulation of the single-strand breaks in the cell.
as §1
Table S25 Dependence of TDP1 reaction values V max and K M on the concentration of inhibitors
[7g], mM V max Standard Error K M Standard Error
[7h], mM V max Standard Error K M Standard Error
[10a], mM V max Standard Error K M Standard Error
[10b], mM V max Standard Error K M Standard Error

TDP1 [6] = system: TDP1; design: method as in PMID 27933897, PMID 30076000, PMID 31619021, doi:10.1134/S1068162017010125, PMID 30396105; details: cited from earlier work
[7] = inhibitor 0.4 mM (so in the source)
[8] = inhibitor 0.8 mM (so in the source)
[9] = inhibitor 1.6 mM (so in the source)
[10] = inhibitor 3.2 mM (so in the source)
[11] = inhibitor 6.4 mM (so in the source)

T1 sequence (Q9NUW8 whole entry): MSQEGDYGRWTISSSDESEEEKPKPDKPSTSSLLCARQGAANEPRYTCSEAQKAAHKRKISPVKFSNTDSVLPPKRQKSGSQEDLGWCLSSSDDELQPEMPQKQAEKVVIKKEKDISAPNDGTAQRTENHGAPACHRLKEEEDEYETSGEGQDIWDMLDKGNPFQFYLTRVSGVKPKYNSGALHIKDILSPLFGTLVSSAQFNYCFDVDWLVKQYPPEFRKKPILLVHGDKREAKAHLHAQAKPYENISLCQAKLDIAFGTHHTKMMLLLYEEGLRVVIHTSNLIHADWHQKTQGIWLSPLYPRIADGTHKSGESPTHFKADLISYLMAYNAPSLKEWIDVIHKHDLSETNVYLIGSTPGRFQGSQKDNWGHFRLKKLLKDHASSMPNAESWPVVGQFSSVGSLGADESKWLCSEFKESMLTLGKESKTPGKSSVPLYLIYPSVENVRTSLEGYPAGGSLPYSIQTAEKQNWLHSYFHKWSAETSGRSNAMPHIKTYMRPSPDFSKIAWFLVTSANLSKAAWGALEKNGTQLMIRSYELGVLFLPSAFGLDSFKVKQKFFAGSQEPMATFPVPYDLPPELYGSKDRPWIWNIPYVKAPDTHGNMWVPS

CC(=O)C1=C(O)C=C2Oc3c(C(=O)CSc4ccccn4)c(O)c(C)c(O)c3[C@@]2(C)C1=O [7i, (2R)-4-acetyl-5,11,13-trihydroxy-2,12-dimethyl-10-[2-(pyridin-2-ylsulfanyl)acetyl]-8-oxatricyclo[7.4.0. 0^2,7]trideca-1(13),4,6,9,11-pentaen-3-one]
IC50 (TDP1 [1]): 11.9 ± 0.4 µM

CC(=O)C1=C(O)C=C2Oc3c(C(=O)CSc4nc5ccccc5o4)c(O)c(C)c(O)c3C2(C)C1=O (stereo not shown) [7e]
CC50 at 3 days [2]: 2.9 ± 0.2 µM | CC50 at 3 days [3]: 26 ± 2 µM | IC50 (TDP1 [1]): 3.2 ± 0.5 µM | CC50 at 3 days [4]: 4.5 ± 1 µM

CC(=O)C1=C(O)C=C2Oc3c(C(=O)CSc4nnc[nH]4)c(O)c(C)c(O)c3C2(C)C1=O (stereo not shown) [7d]
IC50 (TDP1 [1]): 25.2 ± 6.5 µM

CC(=O)C1=C(O)C=C2Oc3c(C(=O)CSc4nc5ccccc5s4)c(O)c(C)c(O)c3C2(C)C1=O (stereo not shown) [7g]
CC50 at 3 days [2]: 2 ± 0.6 µM | Vmax (TDP1 [5]; [7]): 35.4 | Vmax (TDP1 [5]; [8]): 25.6 | Vmax (TDP1 [5]; [9]): 23.0 | Vmax (TDP1 [5]; [10]): 19.4 | Vmax (TDP1 [5]; [11]): 10.9 | Type of inhibition of TDP1 enzyme reaction (TDP1 [5]): uncompetitive | CC50 at 3 days [3]: 3.5 ± 0.3 µM | IC50 (TDP1 [1]): 1.7 ± 0.6 µM | CC50 at 3 days [4]: 3 ± 1 µM

CC(=O)C1=C(O)C=C2Oc3c(C(=O)CSc4ncccn4)c(O)c(C)c(O)c3[C@@]2(C)C1=O [7j, (2R)-4-acetyl-5,11,13-trihydroxy-2,12-dimethyl-10-[2-(pyrimidin-2-ylsulfanyl)acetyl]-8-oxatricyclo[7.4.0. 0^2,7]trideca-1(13),4,6,9,11-pentaen-3-one]
IC50 (TDP1 [1]): 16.9 ± 2.4 µM

CC(=O)C1=C(O)C=C2Oc3c4c(c(C)c(O)c3[C@@]2(C)C1=O)O/C(=C\c1ccc(Br)cc1)C4=O [compound 3]
IC50 (TDP1 [6]): 150 nM

CC(=O)C1=C(O)C=C2Oc3c(C(=O)CSc4ncccc4C(=O)O)c(O)c(C)c(O)c3C2(C)C1=O (stereo not shown) [7k]
IC50 (TDP1 [1]): 19.6 ± 2.8 µM

CC(=O)C1=C(O)C=C2Oc3c(C(=O)CSC4=NCCS4)c(O)c(C)c(O)c3[C@@]2(C)C1=O [7b, (2R)-4-acetyl-10-[2-(4,5-dihydro-1,3-thiazol-2-ylsulfanyl)acetyl]-5,11,13-trihydroxy-2,12-dimethyl-8-oxatricyclo[7.4.0.0^2,7]trideca-1(13),4,6,9,11-pentaen-3-one]
CC50 at 3 days [2]: 11 ± 0.5 µM | CC50 at 3 days [3]: > 50 µM | IC50 (TDP1 [1]): 4.4 ± 1 µM | CC50 at 3 days [4]: 16 ± 5 µM

CC(=O)C1=C(O)C=C2Oc3c(C(=O)CSC#N)c(O)c(C)c(O)c3[C@@]2(C)C1=O [compound 5]
IC50 (TDP1 [6]): 1160 nM

CC(=O)c1c(O)c(C)c(O)c2c1OC1=CC(=O)/C(=C(/C)NCCCc3cc(C(C)(C)C)c(O)c(C(C)(C)C)c3)C(=O)[C@@]12C [compound 2]
IC50 (TDP1 [6]): 160 nM

CC(=O)C1=C(O)C=C2Oc3c(C(=O)CSC(=S)N(C)C)c(O)c(C)c(O)c3[C@@]2(C)C1=O [7a, (2R)-4-acetyl-10-{2-[(dimethylcarbamothioyl)sulfanyl]acetyl}-5,11,13-trihydroxy-2,12-dimethyl-8-oxatricyclo [7.4.0.0^2,7]trideca-1(13),4,6,9,11-pentaen-3-one]
CC50 at 3 days [2]: 13 ± 0.5 µM | CC50 at 3 days [3]: > 50 µM | IC50 (TDP1 [1]): 5.4 ± 2.9 µM | CC50 at 3 days [4]: > 50 µM

CC(=O)C1=C(O)C=C2Oc3c(C(=O)CSc4nc5ccccc5[nH]4)c(O)c(C)c(O)c3[C@@]2(C)C1=O [7f, (2R)-4-acetyl-10-[2-(1H-1,3-benzodiazol-2-ylsulfanyl)acetyl]-5,11,13-trihydroxy-2,12-dimethyl-8-oxatricyclo[7.4.0.0^2,7]trideca-1(13),4,6,9,11-pentaen-3-one]
CC50 at 3 days [2]: 13 µM | CC50 at 3 days [3]: > 50 µM | IC50 (TDP1 [1]): 2.4 ± 1 µM | CC50 at 3 days [4]: 10 ± 2 µM

CC(=O)C1=C(O)C=C2Oc3c(C(=O)CSc4nnc(N)s4)c(O)c(C)c(O)c3[C@@]2(C)C1=O [7c, (2R)-4-acetyl-10-{2-[(5-amino-1,3,4-thiadiazol-2-yl)sulfanyl]acetyl}-5,11,13-trihydroxy-2,12-dimethyl-8-oxatricyclo[7.4.0. 0^2,7]trideca-1(13),4,6,9,11-pentaen-3-one]
CC50 at 3 days [2]: 33 ± 2 µM | CC50 at 3 days [3]: > 50 µM | IC50 (TDP1 [1]): 4.3 ± 0.5 µM | CC50 at 3 days [4]: 35 ± 2 µM

CC(=O)C1=C(O)C=C2Oc3c(C(=O)CSc4ccc(Cl)cc4)c(O)c(C)c(O)c3C2(C)C1=O (stereo not shown) [7h]
CC50 at 3 days [2]: 2.5 ± 0.5 µM | Vmax (TDP1 [5]; [7]): 31.0 | Vmax (TDP1 [5]; [8]): 26.7 | Vmax (TDP1 [5]; [9]): 18.5 | Vmax (TDP1 [5]; [10]): 15.3 | Vmax (TDP1 [5]; [11]): 11.2 | Type of inhibition of TDP1 enzyme reaction (TDP1 [5]): uncompetitive | CC50 at 3 days [3]: 10 ± 2 µM | IC50 (TDP1 [1]): 2.2 ± 0.5 µM | CC50 at 3 days [4]: 4 ± 1 µM

CC(=O)C1=C(O)C=C2Oc3c(C(=O)C[S+]([O-])c4ccc(Cl)cc4)c(O)c(C)c(O)c3[C@@]2(C)C1=O (stereo partly shown) [10b]
CC50 at 3 days [2]: 27 ± 2 µM | Vmax (TDP1 [5]; inhibitor 0.2 mM (so in the source)): 18.7 | Vmax (TDP1 [5]; [7]): 10.7 | Vmax (TDP1 [5]; [8]): 8.5 | Vmax (TDP1 [5]; [9]): 6.3 | Type of inhibition of TDP1 enzyme reaction (TDP1 [5]): uncompetitive | CC50 at 3 days [3]: > 50 µM | CC50 at 3 days [4]: 20 ± 3 µM
